Assay results taken from patent US20130317054A1, “NEURONAL NICOTINIC AGONIST AND METHODS OF USE” (ABBVIE INC., priority 2012, published 2013).

Experiments:
[1] = tested on: clinically stable subjects with schizophrenia; assay: Phase 2a Clinical Study A: MATRICS Consensus Cognitive Battery (MCCB); format: in vivo, human; settings: for change from baseline to Week 12 in MCCB composite score (LS mean): ITT analysis, 12 weeks; for MCCB composite LS mean change from baseline to Week 12: subset of nonsmokers
From the text: (§1) A Phase 2a proof-of-concept (POC) study in clinically stable subjects with schizophrenia who were clinically stable and received stable doses of atypical antipsychotic therapy. The study was a Phase 2, multi-center, randomized, double-blind, placebo-controlled, parallel group study designed to evaluate the safety and efficacy of doses of (4s)-4-(5-phenyl-1,3,4-thiadiazol-2-yloxy)-1-azatricyclo[3.3.1.1^3,7]decane (Compound A) in clinically stable male and female subjects (ages 20 to 55, inclusive) with a Diagnostic and Statistical Manual of Mental Disorders—Fourth Edition, Text Revision (DSM-IV-TR) diagnosis of schizophrenia. Psychiatric diagnoses were confirmed using the Mini-International Neuropsychiatric Interview (MINI) version 6.0.0. The criteria for clinical stability was determined by a combination of retrospective data (over the 4 months prior to the start of Screening, which will be supported by clinical records, patient, identified responsible contact person, and physician interviews), and prospective data assessed during the Prospective Stabilization Period of 28 to 42 days duration.
(§2) The study was a Phase 2, multi-center, randomized, double-blind, placebo-controlled, parallel group study designed to evaluate the safety and efficacy of doses of (4s)-4-(5-phenyl-1,3,4-thiadiazol-2-yloxy)-1-azatricyclo[3.3.1.1^3,7]decane, which is also recognized as Compound A, in treating cognitive deficits in subjects with schizophrenia who were clinically stable and receiving one or two atypical antipsychotic medications. Study drug was administered orally.
(§3) The study consisted of a screening period of at least 28 and up to 42 days, a 84-day outpatient treatment period, a 14-day post-treatment period, and a post-treatment follow-up period. The screening period consisted of three visits: Screening Visit 1, Screening Visit 2, and Day −1. Upon completion of Day −1 procedures, eligible subjects were randomized through an Interactive Voice Response/Interactive Web-Based (IVR/IWB) system. Subjects were randomized in an equal ratio to one of three treatment groups (placebo, 10 mg Compound A, or 25 mg Compound A).
(§4) Subjects were randomized in a 1:1:1 ratio with placebo, 10 mg QD Compound A, of 25 mg Compound A. Each subject was instructed to take study drug once-daily in the morning for 12 weeks. Each daily dose was preferably taken with food. The subject and investigator were blinded to the treatment assignment throughout the study. The treatment assignments for the study subjects are shown below in Table 1.
(§5) The primary endpoint was the MCCB composite score, and the primary endpoint analysis was the change on the MCCB composite score from baseline to endpoint versus placebo. Other secondary measures included the MCCB domains, the NSA-16, the CANTAB cognition battery (measured at different time points from the MCCB), and the UPSA-2. The Positive and Negative Syndrome Scale (PANSS) was included to document stability in schizophrenia symptomatology.
The MCCB was developed by a consortium of academic, industry, the Food and Drug Administration (FDA) and National Institute of Mental Health (NIMH) members called Measurement and Treatment Research to Improve Cognition in Schizophrenia (MATRICS). The battery was established in a multiple phase process that involved experts identifying cognitive tests in the literature that had shown deficits in schizophrenia, use of factor analysis to identify key domains of cognitive deficits in schizophrenia, and then empirically identifying the best tests for each domain based on reliability, validity and feasibility for use in clinical trials. The FDA has endorsed the MCCB as an appropriate outcome measure for Phase 3 CDS trials. […]

[2] = tested on: clinically stable subjects with schizophrenia; assay: Phase 2a Clinical Study A: disposition of subjects and tolerability; format: in vivo, human; settings: for Primary reason for discontinuation: Adverse event: percentages based on treated subjects
From the text: as §1, §2, §3, §4
Subjects completed 2 visits during the screening period. […]

[3] = tested on: clinically stable subjects with schizophrenia; assay: Phase 2a Clinical Study A: CANTAB cognition battery; format: in vivo, human; settings: taken at different time points from the MCCB
From the text: as §1, with “Psychiatric diagnoses were confirmed using the Mini-International Neuropsychiatric Interview (MINI) version 6.0.0.” left out, “duration. […]” for “duration.”
(§6) The primary endpoint was the MCCB composite score, and the primary endpoint analysis was the change on the MCCB composite score from baseline to endpoint versus placebo. Other secondary measures included the MCCB domains, the NSA-16, the CANTAB cognition battery (measured at different time points from the MCCB), and the UPSA-2. […]

[4] = tested on: clinically stable subjects with schizophrenia; assay: Phase 2a Clinical Study A: NSA-16 (negative symptoms); format: in vivo, human
From the text: as §1, with “Psychiatric diagnoses were confirmed using the Mini-International Neuropsychiatric Interview (MINI) version 6.0.0.” left out, “duration. […]” for “duration.”
as §6

[5] = tested on: clinically stable subjects with schizophrenia; assay: Phase 2a Clinical Study A: Positive and Negative Syndrome Scale (PANSS); format: in vivo, human; settings: ITT or nonsmoker groups, throughout the study
From the text: as §1, with “Psychiatric diagnoses were confirmed using the Mini-International Neuropsychiatric Interview (MINI) version 6.0.0.” left out, “duration. […]” for “duration.”
as §6

[6] = tested on: clinically stable subjects with schizophrenia; assay: Phase 2a Clinical Study A: UCSD Performance-Based Skills Assessment-2 (UPSA-2); format: in vivo, human; settings: for UPSA-2 change from baseline score: placebo 2.6, not statistically significant
From the text: as §1, §2, §3, §4, §5
The UCSD Performance-Based Skills Assessment-2 (UPSA-2) is a role-play test designed for subjects with schizophrenia to evaluate cognitive functional capacity in six selected domains of basic living skills. These areas include Organization/Planning, Financial Skills, Communication, Transportation, Household Management, and Medication Management. […] Scores were obtained for each subtest, and the total score was the sum of these subtests. […] The UPSA-2 required an average of 30 minutes to administer. The UPSA-2 was administered in on Days 14, 28, 56, 84 and 98.

[7] = in vivo; cited from earlier work
[8] = tested on: patients with schizophrenia; settings: cited from earlier work
[9] = tested on: patients with schizophrenia; settings: cigarettes, sprays, patch; cited from earlier work
[10] = subset of smoking subjects, both dose groups (10 mg, 25 mg)
[11] = nonsmokers, dose group not stated

SMILES: c1ccc(-c2nnc(O[C@@H]3C4CC5C[C@H]3C[N@](C5)C4)s2)cc1 [Compound A, (4s)-4-(5-phenyl-1,3,4-thiadiazol-2-yloxy)-1-azatricyclo[3.3.1.1^3,7]decane]
- change from baseline to Week 12 in MCCB composite score (LS mean) ([1]; 10 mg QD oral, P=0.088 versus placebo (LS mean +0.50)): +1.79
- change from baseline to Week 12 in MCCB composite score (LS mean) ([1]; 25 mg QD oral, P=0.067 versus placebo (LS mean +0.50)): +2.02
- effect on cognition in subjects with schizophrenia (summary) ([1]; driven by verbal learning, working memory and attention, consequence of the effect in nonsmoking subjects): procognitive effect
- MCCB social cognition domain, mean values across treatment groups ([1]; nonsmokers, 10 mg, 25 mg and placebo): similar
- MCCB all other domains with the exception of reasoning and problem solving, effect versus placebo ([1]; nonsmokers, active treatment groups, monotonic dose relationship): magnitude of effect was greater
- MCCB composite LS mean change from baseline to Week 12 ([1]; 10 mg, P=0.021 compared to placebo (−0.7)): +2.1
- MCCB composite LS mean change from baseline to Week 12 ([1]; 25 mg, P=0.001 compared to placebo (−0.7)): +4.5
- change from baseline scores on the MCCB composite and domain scores [1, 10]: markedly similar to placebo
- Primary reason for discontinuation: Adverse event ([2]; 10 mg QD): 4 (5.8) n (%)
- Primary reason for discontinuation: Adverse event ([2]; 25 mg QD): 3 (4.5) n (%)
- Primary reason for discontinuation: Adverse event ([2]; Compound A overall): 7 (5.1) n (%)
- tolerability in subjects with schizophrenia ([2]; doses up to 25 mg QD, including 10 mg QD and 25 mg QD): well tolerated
- Results of the CANTAB battery [3]: markedly similar to those of the MCCB
- effect on negative symptoms of schizophrenia (summary) ([4]; human, in vivo): No effect
- NSA-16 analyses ([4]; nonsmoking subjects and subjects with predominant negative symptoms): did not reveal statistical significance
- changes in the PANSS scores [5]: no significant changes
- UPSA-2 composite score ([6]; ITT, either dose group (10 mg, 25 mg)): No significance
- UPSA-2 change from baseline score ([6]; nonsmokers, 10 mg): 1.4
- UPSA-2 change from baseline score ([6]; nonsmokers, 25 mg): 3.9
- UPSA-2 effect size (Cohen's d) based on the raw data [6, 11]: 0.13
- UPSA-2 model-based effect size [6, 11]: 0.23
- change from baseline scores on the UPSA-2 [6, 10]: markedly similar to placebo

SMILES: O=C(N[C@H]1CN2CCC1CC2)c1cc2cccc(Cl)c2s1 [EVP-6124, N-[(3R)-1-azabicyclo[2.2.2]oct-3-yl]-7-chloro-1-benzothiophene-2-carboxamide]
- effect on the CogState test battery [7]: improvements

SMILES: COc1ccc(/C=C2\CCCN=C2c2cccnc2)c(OC)c1 [GTS-21]
- effect on the Repeatable Battery for the Assessment of Neuropsychological Status total scale [8]: positive effects

SMILES: CN1CCCC1c1cccnc1 (stereo not shown) [Nicotine, nicotine]
- neuropsychological performance [9]: improved
